Legend:
[1] = biological target: T1, Adenosine receptor A1 (Rattus norvegicus, UniProt P25099); assay: Tested for binding affinity against Adenosine A1 receptor from rat forebrain membranes, using N6-[3H]- cyclohexyladenosine as radioligand
T1 sequence (P25099 whole entry): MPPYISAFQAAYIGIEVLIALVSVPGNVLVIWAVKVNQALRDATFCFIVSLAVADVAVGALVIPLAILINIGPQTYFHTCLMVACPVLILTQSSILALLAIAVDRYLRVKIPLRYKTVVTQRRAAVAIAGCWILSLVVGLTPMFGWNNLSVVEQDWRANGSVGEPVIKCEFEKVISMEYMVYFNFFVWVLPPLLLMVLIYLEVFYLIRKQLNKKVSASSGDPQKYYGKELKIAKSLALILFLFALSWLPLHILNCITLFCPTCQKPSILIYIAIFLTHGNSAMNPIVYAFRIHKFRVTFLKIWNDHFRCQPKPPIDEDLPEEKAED

[2] = tested on: Mus musculus; assay: Acquisition time in (R)-PIA) induced avoidance test (performed in mice) for antagonistic activity after p.o. administration of 0.31 mg/kg; assay type: functional; conditions: route oral
[3] = tested on: Mus musculus; assay: Acquisition time in (R)-PIA) induced avoidance test (performed in mice) for antagonistic activity after p.o. administration of 1.25 mg/kg; assay type: functional; conditions: route oral
[4] = tested on: Mus musculus; assay: Acquisition time in (R)-PIA) induced avoidance test (performed in mice) for antagonistic activity after peroral administration of 20 mg/kg; assay type: functional; conditions: route oral
[5] = tested on: Mus musculus; assay: Retention time in (R)-PIA) induced avoidance test (performed in mice) for antagonistic activity after p.o. administration of 1.25 mg/kg; assay type: functional, organism-based; parameters: dose 1.25 mg/kg
[6] = tested on: Mus musculus; assay: Retention time in (R)-PIA) induced avoidance test (performed in mice) for antagonistic activity after peroral administration of 20 mg/kg; assay type: functional, organism-based; parameters: dose 20 mg/kg
[7] = tested on: Mus musculus; assay: Retention time in (R)-PIA) induced avoidance test (performed in mice) for antagonistic activity after peroral administration of 5 mg/kg; assay type: functional, organism-based; parameters: dose 5 mg/kg
[8] = tested on: Mus musculus; assay: Retention time in (R)-PIA) induced avoidance test (performed in mice) for antagonistic activity after peroral administration of 0.31 mg/kg; assay type: functional, organism-based; parameters: dose 0.31 mg/kg
[9] = tested on: Rattus norvegicus; assay: Acquisition time in Scopolamine induced avoidance test (performed in rat) for antagonistic activity after peroral administration of 1.25 mg/kg; assay type: functional; conditions: route oral
[10] = tested on: Rattus norvegicus; assay: Acquisition time in Scopolamine induced avoidance test (performed in rat) for antagonistic activity after peroral administration of 20 mg/kg; assay type: functional; conditions: route oral
[11] = tested on: Rattus norvegicus; assay: Acquisition time in Scopolamine induced avoidance test (performed in rat) for antagonistic activity after p.o. administration of 0.08 mg/kg; assay type: functional; conditions: route oral
[12] = tested on: Rattus norvegicus; assay: Acquisition time in Scopolamine induced avoidance test (performed in rat) for antagonistic activity after p.o. administration of 0.31 mg/kg; assay type: functional; conditions: route oral
[13] = tested on: Rattus norvegicus; assay: Acquisition time in Scopolamine induced avoidance test (performed in rat) for antagonistic activity after p.o. administration of 5 mg/kg; assay type: functional; conditions: route oral
[14] = tested on: Rattus norvegicus; assay: Retention time in Scopolamine induced avoidance test (performed in […]) for antagonistic activity after peroral administration of 5 mg/kg; assay type: functional, organism-based; parameters: dose 5 mg/kg
[15] = tested on: Rattus norvegicus; assay: Retention time in Scopolamine induced avoidance test (performed in rat) for antagonistic activity after p.o. administration of 0.08 mg/kg; assay type: functional, organism-based; parameters: dose 0.08 mg/kg
[16] = tested on: Rattus norvegicus; assay: Retention time in Scopolamine induced avoidance test (performed in rat) for antagonistic activity after p.o. administration of 0.31 mg/kg; assay type: functional, organism-based; parameters: dose 0.31 mg/kg
[17] = tested on: Rattus norvegicus; assay: Retention time in Scopolamine induced avoidance test (performed in rat) for antagonistic activity after peroral administration of 1.25 mg/kg; assay type: functional, organism-based; parameters: dose 1.25 mg/kg
[18] = tested on: Rattus norvegicus; assay: Retention time in Scopolamine induced avoidance test (performed in rat) for antagonistic activity after peroral administration of 20 mg/kg; assay type: functional, organism-based; parameters: dose 20 mg/kg
[19] = tested on: Mus musculus; assay: Acquisition time in (R)-PIA) induced avoidance test (performed in mice) for antagonistic activity after peroral administration of 5 mg/kg; assay type: functional; conditions: route oral
[20] = tested on: Mus musculus; assay: Acquisition time in (R)-PIA) induced avoidance test (performed in mice) for antagonistic activity after peroral administration of 0.08 mg/kg; assay type: functional; conditions: route oral
[21] = tested on: Mus musculus; assay: Retention time in (R)-PIA) induced avoidance test (performed in mice) for antagonistic activity after peroral administration of 0.08 mg/kg; assay type: functional, organism-based; parameters: dose 0.08 mg/kg
[22] = tested on: Mus musculus; assay: Retention time in (R)-PIA) induced avoidance test (performed in mice) for antagonistic activity after peroral administration of 0.02 mg/kg
[23] = tested on: Mus musculus; assay: Acquisition time in (R)-PIA) induced avoidance test (performed in mice) for antagonistic activity after peroral administration of 0.02 mg/kg; conditions: route oral
[24] = biological target: T2, Adenosine receptor A1 (Cavia porcellus, UniProt P47745); assay: Binding affinity against Adenosine A1 receptor from guinea pig forebrain membranes by N6-[3H]- cyclohexyladenosine displacement.
T2 sequence (P47745 whole entry): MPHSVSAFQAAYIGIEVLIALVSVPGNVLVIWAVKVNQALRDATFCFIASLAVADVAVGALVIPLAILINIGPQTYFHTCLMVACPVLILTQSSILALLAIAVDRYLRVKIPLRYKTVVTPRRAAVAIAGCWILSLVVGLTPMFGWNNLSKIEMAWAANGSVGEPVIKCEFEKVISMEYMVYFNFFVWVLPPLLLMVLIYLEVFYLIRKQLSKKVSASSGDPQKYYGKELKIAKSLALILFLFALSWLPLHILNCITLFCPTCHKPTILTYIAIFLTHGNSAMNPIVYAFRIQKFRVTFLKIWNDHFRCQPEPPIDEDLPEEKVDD

[25] = biological target: Adenosine A2 receptor (Rattus norvegicus, UniProt P29276+P30543); assay: Binding affinity at Adenosine A2 receptor from rat striatal membranes by N-[3H] ethyladenosin-5'- uronamide displacement.

SMILES | Ki [1] [nM] | Acquisition time [2] [s] | Acquisition time [3] [s] | Acquisition time [4] [s] | Retention time [5] [s] | Retention time [6] [s] | Retention time [7] [s] | Retention time [8] [s] | Acquisition time [9] [s] | Acquisition time [10] [s] | Acquisition time [11] [s] | Acquisition time [12] [s] | Acquisition time [13] [s] | Retention time [14] [s] | Retention time [15] [s] | Retention time [16] [s] | Retention time [17] [s] | Retention time [18] [s] | Acquisition time [19] [s] | Retention time [22] [s] | other results
COc1cc(/C=C/c2nc3c(c(=O)n(C)c(=O)n3C)n2C)cc(OC)c1OC |  | 22.1 | 24.7 | 21 | 23 | 74.9 | 49.9 | 63.8 | 26.6 | 13.2 | 9.9 | 21.3 | 11.3 | 31.4 | 28.9 | 36.3 | 33.7 | 26.8 | 33.8 |  | 
CCCn1c(=O)c2[nH]c(C(C3CC3)C3CC3)nc2n(CCC)c1=S |  |  |  |  |  |  |  |  |  |  |  |  |  |  |  |  |  |  |  |  | Ki [24]: 6.1 nM
CCCn1c(=O)c2nc(C34CC5CC(CC3C5)C4)[nH]c2n(CCc2ccc(N)cc2)c1=O |  | 14.8 | 20.3 | 14.7 | 168 | 98.7 | 92.5 | 60.3 | 15.3 | 18.3 | 12 | 8.3 | 11.9 | 182 | 20.5 | 95.9 | 136 | 232 | 14.7 | 36 | Ki [25]: > 100 µM; Acquisition time [23]: 18.1 s
CCCn1c(=O)c2[nH]c(C3CCC(=O)C3)nc2n(CCc2ccc(N)cc2)c1=O (stereo not drawn) |  |  |  |  |  |  |  |  |  |  |  |  |  |  |  |  |  |  |  |  | Ki [24]: 23 nM

Now from value to molecule, other results behind:

Ki [1] [nM] | SMILES | Acquisition time [2] [s] | Acquisition time [3] [s] | Acquisition time [4] [s] | Retention time [5] [s] | Retention time [6] [s] | Retention time [7] [s] | Retention time [8] [s] | Acquisition time [9] [s] | Acquisition time [10] [s] | Acquisition time [11] [s] | Acquisition time [12] [s] | Acquisition time [13] [s] | Retention time [14] [s] | Retention time [15] [s] | Retention time [16] [s] | Retention time [17] [s] | Retention time [18] [s] | Acquisition time [19] [s] | Retention time [22] [s] | other results
1.5 | CCCn1c(=O)c2[nH]c(C34CC5CC(CC(C5)C3)C4)nc2n(CCC)c1=O |  |  |  |  |  |  |  |  |  |  |  |  |  |  |  |  |  |  |  | 
0.75 | CCCn1c(=O)c2nc(C3CC4CCCC4C3)[nH]c2n(CCC)c1=O (stereo not drawn) | 23.3 | 14.5 |  | 317 |  | 384 | 140 | 9.5 | 9.9 | 10.8 | 11.1 | 11.1 | 22.6 | 30.7 | 29.6 | 18 | 35.1 | 42.7 | 18.5 | Acquisition time [20]: 24 s; Retention time [21]: 83.2 s; Acquisition time [23]: 13.4 s
